# Measurements: patent US20070293458A1, “Prevention of nuclear, solar, and other radiation-induced tissue damage” (IP-6 Research Inc., priority 2006, published 2007)
# Entries after “also recorded” stand apart in the source; their conditions may differ.
# Legend:
# Assay type in all cases: cell-based, human
# [1] = test system: HaCaT cells; assay: Annexin V and PI staining, flow cytometry (apoptotic, necrotic, viable cells) after UVB radiation; settings: UVB-exposed
# Method: FIG. 3. Effect of IP-6 and UVB radiation on cell cycle distribution of HaCaT cells. For annexin V and PI staining cells were either not exposed or exposed to 30 mJ/cm^2 UVB radiation, then either treated with 1.0 mM Na-IP-6 or not treated with IP-6. Eighteen hours later, cells were harvested and double stained with annexin V and PI and analyzed by flow cytometry. The number of cells that are present in apoptosis, necrosis or are viable are represented as percentages; p<0.001, as compared to the group exposed to UVB but not treated with IP-6. The concentration of inositol in the media is 38.8 μM. HaCaT cells were plated in 60 mm tissue culture dishes for 24 hours. The cells were then either not exposed, or exposed, to 30 mJ/cm^2 UVB radiation and treated immediately with 0, 0.5 mM, or 1.0 mM IP-6. Cells were harvested 6 and 18 hours after UVB exposure. 5 μL of RNase (DNase-free) was added to 10^6 cells/mL. The cell suspension was incubated at 37° C. for 30 minutes. The suspension was then chilled on ice (2-8° C.). 100 μL of PI was added to the cell suspension (Cellular DNA flow cytometric analysis kit, Roche Diagnostics, Indianapolis, Ind.). DNA quantitation was performed on the same day by flow cytometry using FACS.
# [2] = test system: HaCaT cells; assay: Cell attachment (crystal violet absorbance) after UVB radiation
# Method: 5×10^4 HaCaT cells were seeded into each well of four 6-well tissue culture plates and incubated at 37° C. and 5% CO2 for 24 hours. One hour before UVB irradiation, two plates were treated with IP-6 (0 and 0.1 mM), one for IP-6 pre-treatment and the other for IP-6 pre-treatment and post-treatment. All four plates were then washed twice with PBS 1×, and a small amount of PBS 1× was added to the wells, which were irradiated at 30 mJ/cm^2. After UVB exposure, PBS was removed from the wells and DMEM media was added to each well. IP-6 (0.05 and 0.1 mM) was then added to the plates labeled no UVB exposure, IP-6 post-treatment, and pre-treatment and post-treatment. The cells were then incubated (37° C. and 5% CO2) for 18 hours. Following incubation, the cells were washed 4 times with PBS 1× (pH 7.4), then fixed with 4.0% formaldehyde for 15 minutes, and stained with 0.5% aqueous crystal violet for at least 5 minutes. Excess crystal violet was washed from the wells and the plates were left to dry. The dried crystal violet residue in each well was then dissolved in 500 μL of 30% acetic acid. The absorbance was read at 595 nm in triplicate in a 96-well plate using an EL Ultra Micro-plate Reader. Additionally, 5×10^4 HaCaT cells were plated into each well of ten 6-well plates as was done above. Before UVB irradiation, cells were washed twice with PBS 1×, and a small amount of PBS 1× was added to the wells. Cells were then exposed to no UVB, or 15, 30, 60, or 120 mJ/cm^2 intensities. Following exposure, cell media was added to the wells and cells were treated with IP-6 (0-2.0 mM). The cells were then incubated at 37° C. and 5% CO2. 18 hours after UVB exposure, cells were fixed with 4% formaldehyde, stained with 0.5% aqueous crystal violet and dissolved with 30% acetic acid as was done above. The absorbance was read in triplicate at 595 nm.
# [3] = test system: caspase-3 activation of HaCaT cells; assay: Fluorometric CaspACE assay of activated caspase-3 activity
# Method: FIG. 4. Effect of IP-6 and UVB radiation on caspase-3 activation of HaCaT cells. To assess activated caspase-3 activity, cells were either not exposed or exposed to 30 mJ/cm^2 UVB radiation, and then either treated with 1.0 mM Na-IP-6 or not treated with IP-6. Eighteen hours later, cells were harvested and fluorometric CaspACE assays were performed. Activated caspase-3 activity is represented as relative fluorescence units. **Significant at p<0.01, as compared to the group exposed to UVB but not treated with IP-6. The concentration of inositol in the media is 38.8 μM.
# HaCaT cells were plated in 60 mm tissue culture dishes for 24 hours. The cells were either exposed to 30 mJ/cm^2 UVB radiation or not exposed. […] 10 μL of sample was then combined with caspase assay buffer (312.5 mM HEPES (pH 7.5), 31.25% sucrose, 0.3125% CHAPS (3-[(3-cholamido-propyl)-dimethyl ammonio]-1 propane-sulfonate, 2% DMSO, 10 mM DTT) containing 50 μM caspase-3 substrate, Ac-DEVD-AMC, in white 96 well microtiter plates. Negative control wells included 2 μL of 2.5 mM specific peptide inhibitor of caspase-3 (Ac-DEVD-CHO). The plate was incubated at 30° C. for 1 hour. The free reaction product, AMC was then measured using a fluorescent plate reader with an excitation wavelength of 360 nm and an emission wavelength of 460 nm. Caspase-3 activity was reported as relative fluorescent intensity of AMC.
# [4] = test system: HaCaT cells; assay: MTT assay of cell viability and proliferation after UVB radiation
# Method: The human keratinocyte (HaCaT) cells were grown in Dulbecco's Modified Eagle's Medium containing 7 mg/L of inositol (38.8 μM), supplemented with 10% heat-inactivated fetal bovine serum, 1% L-glutamine, and 1% antibiotic (penicillin, streptomycin). Cells were maintained at 37° C. and 5% CO2. Na-IP-6 was diluted from a 100 mM stock solution to the required concentrations (0.05-2.0 mM) using cell culture medium as the diluent. UVB intensities of 15, 30, 60 and 120 mJ/cm^2 were used, which was obtained by varying cell exposure time to UVB light (80% of light output is in 290-320 nm UVB range).
# HaCaT cells were grown to approximately 80-90% confluency. 100 μL of 1×10^4 cells/mL HaCaT cells were seeded into each well of four 96-well plates. Cells were treated with IP-6 (0-2.0 mM), and on days 0, 1, 2, and 3, 100 μL of 1 mg/mL of aqueous MTT dissolved in DMEM media was added to each well and plates were placed into the incubator (37° C. and 5% CO2) for 4 hours. 150 μL of DMSO was then added to dissolve the formazan products. The absorbance was read at 540 nm using an EL Ultra Micro-plate Reader. Results were recorded as mean absorbance for each set of groups. […]
# To determine if IP-6 protects HaCaT cells from UVB-induced injury, The MTT assay was performed as done above. […] Results were recorded as the mean absorbance for each set of groups.
# [5] = test system: HaCaT cells; assay: Cell cycle distribution by PI flow cytometry after UVB radiation
# Method: HaCaT cells were plated in 60 mm tissue culture dishes for 24 hours. The cells were then either not exposed, or exposed, to 30 mJ/cm^2 UVB radiation and treated immediately with 0, 0.5 mM, or 1.0 mM IP-6. Cells were harvested 6 and 18 hours after UVB exposure. 5 μL of RNase (DNase-free) was added to 10^6 cells/mL. The cell suspension was incubated at 37° C. for 30 minutes. The suspension was then chilled on ice (2-8° C.). 100 μL of PI was added to the cell suspension (Cellular DNA flow cytometric analysis kit, Roche Diagnostics, Indianapolis, Ind.). DNA quantitation was performed on the same day by flow cytometry using FACS.
# [6] = 0.5 mM IP-6, vs UVB without IP-6
# [7] = 0.5 and 1.0 mM IP-6, vs UVB without IP-6, p<0.001
structure (smiles),measurement,setting,value
"O=P(O)(O)O[C@H]1[C@H](OP(=O)(O)O)[C@@H](OP(=O)(O)O)[C@H](OP(=O)(O)O)[C@@H](OP(=O)(O)O)[C@H]1OP(=O)(O)O [IP-6, inositol hexaphosphate]",percentage of apoptotic cells,[1]; [6],significant decrease
same,percentage of necrotic cells,[1]; [6],significant decrease
same,percentage of viable cells,[1]; [6],significant increase
same,"apoptotic, necrotic and viable cells, effects relative to 0.5 mM",[1]; 1.0 mM IP-6,much more pronounced
same,"apoptotic cells, dose dependence",[1]; [7],dose-dependent decrease
same,"necrotic cells, dose dependence",[1]; [7],dose-dependent decrease
same,viable cells,[1]; [7],increase in viable cells
same,cell attachment,"[2]; UVB 15 mJ/cm^2, 18 h, higher IP-6 concentrations (1.0 and 2.0 mM), vs non-IP-6 treated group",decrease in cell attachment
same,cell attachment,"[2]; UVB 15 mJ/cm^2, 18 h, lower IP-6 concentrations, vs non-IP-6 treated group",increase in cell attachment
same,cell attachment,"[2]; UVB 30 mJ/cm^2, 18 h, vs irradiated cells without IP-6, p<0.01 (FIG. 2: 0.5, 1.0 and 2.0 mM)",significant increase in HaCaT cell attachment with increasing concentrations of IP-6
same,cell attachment,"[2]; UVB 60 mJ/cm^2, 18 h, vs irradiated cells without IP-6",decrease in cell attachment
same,cell attachment,"[2]; UVB 120 mJ/cm^2, 18 h, vs irradiated cells without IP-6",decrease in cell attachment
same,activated caspase-3 activity,"[3]; 1.0 mM IP-6, no UVB, 18 hours, vs control group",increase in activated caspase-3 activity
same,activated caspase-3 activity,"[3]; UVB 30 mJ/cm^2 + 1.0 mM IP-6, 18 hours, vs UVB without IP-6, p<0.01",significantly lowered
same,cell viability and proliferation (MTT),"[4]; UVB 15-120 mJ/cm^2, IP-6 0-2.0 mM added immediately after UVB, read 24 h later, p<0.001",increase in cell viability with increasing concentration of IP-6; also recorded: significant increase in relative cell viability with increasing IP-6 concentrations
same,"cell viability (MTT), normal trend",[4]; normal trend with higher IP-6 concentration (without the UVB effect),decrease in cell viability with higher concentration of IP-6
same,"G2M phase, 1.0 mM vs 0.5 mM treatment",[5]; 18 hours after UVB 30 mJ/cm^2,comparable
same,"effect on different phases of the cell cycle, 6 vs 18 hour","[5]; UVB 30 mJ/cm^2, IP-6 0.5 or 1.0 mM",no time-dependent differences
